# Values quoted from earlier work, collected in patent US20010053349A1, “Artificial nail sanitizing solution” (priority 2000, published 2001).
# System: nail fungus
# Conditions: oral compounds; average; treatment of documented nail fungus
compound,measurement,value
CN(C/C=C/C#CC(C)(C)C)Cc1cccc2ccccc12 [terbinafine],Clinical and mycological cure rates,70%
